Key:
[1] = tested on: allergen-induced airway inflammation; experiment: Mouse model of asthma (OVA), inhalation, long-term exposure challenge (11 weeks); assay type: in vivo, mice; conditions: aerosol, long term allergen exposure (11 weeks)
Method: In order to study the modulation of airway inflammation by intraperitoneal injection of Compound I, mice were sensitized with 10 μg ovalbumin alumin-adsorbed (aluminject, perbio, Erembodegem, Belgium) injected intraperitonealy at days 0 and 7 and were subsequently exposed to OVA 1% or PBS aerosols for 30 minutes from day 21 to 24. Intraperitoneal injections were performed 30 min before OVA inhalations. The different injected formulations were: cremophor 10%-DMSO 10%-PBS 80%- Compound I30 mg/kg (suspension); cremophor 10%-DMSO 10%-PBS 80%- Compound I3.75 mg/kg (solution); HPβCD 200 mM Compound I 7.5 mg/kg (solution); HPβCD 200 mM. All results were compared to mice sensitized and exposed to PBS and OVA treated with PBS injected intraperitonealy. In order to study the modulation of airway inflammation by inhaled Compound I, mice were sensitized as described previously. Two protocols referred to as short exposure challenge and long-term exposure challenge were used. In the short exposure challenge, mice were exposed to aerosols of Compound I-complex at concentrations of 0.03 and 0.3 mg/ml of active compound in aqueous solution of from day 21 to 27 during 30 min in a Plexiglas exposure chamber (30×20×15 cm). Mice were exposed to OVA aerosols 30 minutes after the Compound I inhalation from day 23 to 27. […]
Twenty-four hours after the last allergen exposure, the bronchial hyper responsiveness was determined by measuring the Penh using a barometric plethysmograph as proposed by Hamelmann, E., et al., Am. […] The Penh was measured at baseline and 5 min after the inhalation of increasing doses (25, 50, 75 and 100 mM) of methacholine (Mch).
(§1) Immediately after the assessment of airway responsiveness, mice were sacrificed and 1 ml of PBS free of ionised calcium and magnesium but supplemented with 0.05 mM sodium EDTA was instilled 4 times via a tracheal cannula and recovered by gentle manual aspiration. […] A value from 0 to 3 per criteria was adjudged to each tissue section scored. […]

[2] = tested on: allergen-induced airway inflammation and bronchial hyperresponsiveness; experiment: Mouse model of asthma (OVA), inhalation, short exposure challenge; assay type: in vivo, mice; conditions: aerosol, short-term exposure; Compound I 0.03 and 0.3 mg/ml, fluticasone 1 mg/ml; vs placebo, p<0.0001
Method: In order to study the modulation of airway inflammation by intraperitoneal injection of Compound I, mice were sensitized with 10 μg ovalbumin alumin-adsorbed (aluminject, perbio, Erembodegem, Belgium) injected intraperitonealy at days 0 and 7 and were subsequently exposed to OVA 1% or PBS aerosols for 30 minutes from day 21 to 24. Intraperitoneal injections were performed 30 min before OVA inhalations. The different injected formulations were: cremophor 10%-DMSO 10%-PBS 80%- Compound I30 mg/kg (suspension); cremophor 10%-DMSO 10%-PBS 80%- Compound I3.75 mg/kg (solution); HPβCD 200 mM Compound I 7.5 mg/kg (solution); HPβCD 200 mM. All results were compared to mice sensitized and exposed to PBS and OVA treated with PBS injected intraperitonealy. In order to study the modulation of airway inflammation by inhaled Compound I, mice were sensitized as described previously. Two protocols referred to as short exposure challenge and long-term exposure challenge were used. In the short exposure challenge, mice were exposed to aerosols of Compound I-complex at concentrations of 0.03 and 0.3 mg/ml of active compound in aqueous solution of from day 21 to 27 during 30 min in a Plexiglas exposure chamber (30×20×15 cm). Mice were exposed to OVA aerosols 30 minutes after the Compound I inhalation from day 23 to 27. In the so called long-term inhalation challenge, mice were exposed to aerosols of Compound Iat concentrations of 0.03 and 0.3 mg/ml complexed with HPβCD in an aqueous solution during 30 min five days odd weeks and to OVA aerosols 3 days odd weeks for 11 weeks. No inhalations were performed during even weeks.
The aerosol were produced by using an ultrasonic nebuliser SYSTAM (Systeme Assistance Medical, Le Ledat, France), the vibration frequency of which is 2.4 MHz with variable vibration intensity and ventilation levels. Vibration intensity was fixed in position 6 and the ventilation level was 25(ν1/2)1/min.
Twenty-four hours after the last allergen exposure, the bronchial hyper responsiveness was determined by measuring the Penh using a barometric plethysmograph as proposed by Hamelmann, E., et al., Am. J Respir. Crit. Care Med. 156 (1997) 766-775). The Penh was measured at baseline and 5 min after the inhalation of increasing doses (25, 50, 75 and 100 mM) of methacholine (Mch).
as §1, with “aspiration. The recovered bronchoalveolar lavage fluid (BAL) was centrifuged (1800 rpm for 10 min at 4° C.).” for “aspiration.”

Human MMP-9 = Human MMP-9 (Homo sapiens, UniProt P14780); experiment: MMP enzymatic activity, modified fluorescence assay (DNP-substrate); assay type: biochemical; conditions: read-out: IC50 MMP-9
Method: (§2) IC50 values are measured by an in vitro assay for MMP enzymatic activity. Such an assay is described by Stack, M. S., and Gray, R. D., J. Biol. Chem. 264 (1989) 4277-4281. This assay is based on the determination of MMP enzymatic activity on a dinitrophenol substrate and fluorescence measurement of the substrate after cleaving by MMPs.
(§3) Inhibitors were tested in a modified fluorescence-assay as described by Stack, M. S., and Gray, R. D., J. Biol. Chem. 264 (1989) 4277-4281. Human MMP-1, MMP-2, MMP-3, MMP-9 and MMP-14 are commercially available (e.g. Calbiochem). The pro-enzymes were activated with 1 mM APMA (incubation for 30 min at 37° C.) immediately before testing. Activated enzyme is diluted to 100 ng/ml in incubation buffer (50 mM Tris, 100 mM NaCl, 10 mM CaCl2, pH 7.6). The compounds were dissolved in 100% DMSO. […] DNP-substrate (Bachem M1855, 255 μM) was dissolved in incubation buffer.
(§4) The test tube contains 970 μl incubation buffer, 10 μl inhibitor solution and 10 μl enzyme solution. The reaction was started by adding the 10 μl substrate solution.
(§5) Kinetics of activity were determined using excitation at 280 nm and emission at 346 nm measured on a FluoroMax™ (Spex Industries Inc., Edison, N.J., USA) over 120 sec. DMSO has been used as control instead of inhibitor solution.
(§6) IC50's are defined as the concentration of inhibitor that gives a signal that is 50% of the positive enzyme control.

Human MMP-14 = Human MMP-14 (Homo sapiens, UniProt P50281); experiment: as above; assay type: biochemical; conditions: read-out: IC50 MMP-14
Method: as §2, §3, §4, §5, §6

Sequence of Human MMP-9 (P14780 107-707 limits assumed): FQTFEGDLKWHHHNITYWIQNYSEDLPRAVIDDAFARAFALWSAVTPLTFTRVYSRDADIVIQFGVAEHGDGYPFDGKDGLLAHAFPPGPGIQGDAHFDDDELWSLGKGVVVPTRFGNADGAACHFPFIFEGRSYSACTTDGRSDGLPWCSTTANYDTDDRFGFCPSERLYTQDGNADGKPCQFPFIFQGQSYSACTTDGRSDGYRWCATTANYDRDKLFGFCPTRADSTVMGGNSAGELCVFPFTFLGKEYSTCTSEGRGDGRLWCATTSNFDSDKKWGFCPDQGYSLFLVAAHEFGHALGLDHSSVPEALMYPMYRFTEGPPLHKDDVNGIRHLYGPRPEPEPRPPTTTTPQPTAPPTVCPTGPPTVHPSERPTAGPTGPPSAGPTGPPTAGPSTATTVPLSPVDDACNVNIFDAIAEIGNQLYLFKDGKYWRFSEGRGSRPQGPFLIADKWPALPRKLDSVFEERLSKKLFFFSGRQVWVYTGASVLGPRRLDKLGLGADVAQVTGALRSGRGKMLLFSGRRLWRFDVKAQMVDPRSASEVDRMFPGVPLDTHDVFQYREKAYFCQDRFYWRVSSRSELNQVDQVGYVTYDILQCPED

`CCC(=O)O[C@]1(C(=O)SCF)[C@H](C)C[C@H]2[C@@H]3C[C@H](F)C4=CC(=O)C=C[C@]4(C)[C@@]3(F)[C@@H](O)C[C@@]21C` was tested, and the peribronchial inflammation score ([1]; p<0.0001) was “significantly decreased”, the BAL eosinophilia ([1]; p<0.001) was “significantly decreased” and the “tissue eosinophil infiltration score” value ([1]; p<0.01) was “decreased”. For the same compound, the “eosinophilic inflammation in BAL” value [2] was “significant decrease”.

In the case of `CNC(=O)[C@H](Cc1ccccc1)NC(=O)[C@H](CC(C)C)[C@H](CSc1cccs1)C(=O)NO` [Batimastat, reference compound], the IC50 (Human MMP-9) is reported as 23 nM and the IC50 (Human MMP-14) is reported as 19 nM.

Reference: patent US20070225253A1, “Use of a trioxopyrimidine for the treatment and prevention of bronchial inflammatory diseases” (priority 2004, published 2007)
